Measured values: the supplement of paper PMC10307832

Legend:
Assay in all cases: relative viability (nuclei count vs DMSO), 5 days (fraction); higher = more cells survive
Venetoclax + Pemetrexed = compound: CC1(C)CCC(CN2CCN(c3ccc(C(=O)NS(=O)(=O)c4ccc(NCC5CCOCC5)c([N+](=O)[O-])c4)c(Oc4cnc5[nH]ccc5c4)c3)CC2)=C(c2ccc(Cl)cc2)C1 [Venetoclax] + Nc1nc2[nH]cc(CCc3ccc(C(=O)N[C@@H](CCC(=O)O)C(=O)O)cc3)c2c(=O)[nH]1 [Pemetrexed] (partner 0.2 µM)
Outline: (§1)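 Five library-drug doses in √10 steps were combined with a fixed anchor-drug dose, or a single drug was given alone, by pin tool to lung cancer cell lines in 1536-well plates the day after seeding. Nuclei were stained and counted after 5 days. Relative viability is the nuclei count in treated wells over that in vehicle wells, taken as the median of duplicate plates.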

Selumetinib + Olaparib = compound: Cn1cnc2c(F)c(Nc3ccc(Br)cc3Cl)c(C(=O)NOCCO)cc21 [Selumetinib] + O=C(c1cc(Cc2n[nH]c(=O)c3ccccc23)ccc1F)N1CCN(C(=O)C2CC2)CC1 [Olaparib] (partner 8 µM)
Outline: as §1

Selumetinib + OSI-027 = compound: Cn1cnc2c(F)c(Nc3ccc(Br)cc3Cl)c(C(=O)NOCCO)cc21 [Selumetinib] + COc1cccc2cc(-c3nc([C@H]4CC[C@H](C(=O)O)CC4)n4ncnc(N)c34)[nH]c12 [OSI-027] (partner 0.5 µM)
Outline: as §1

Selumetinib + Decitabine = compound: Cn1cnc2c(F)c(Nc3ccc(Br)cc3Cl)c(C(=O)NOCCO)cc21 [Selumetinib] + Nc1ncn([C@H]2C[C@H](O)[C@@H](CO)O2)c(=O)n1 [Decitabine] (partner 2 µM)
Outline: as §1

| Cell Line | relative viability (Venetoclax + Pemetrexed; first compound 0.01 µM) | relative viability (Venetoclax + Pemetrexed; first compound 0.03162 µM) | relative viability (Venetoclax + Pemetrexed; first compound 0.1 µM) | relative viability (Venetoclax + Pemetrexed; first compound 0.3162 µM) | relative viability (Venetoclax + Pemetrexed; first compound 1 µM) | relative viability (Selumetinib + Olaparib; first compound 0.02 µM) | relative viability (Selumetinib + Olaparib; first compound 0.06325 µM) | relative viability (Selumetinib + Olaparib; first compound 0.2 µM) | relative viability (Selumetinib + Olaparib; first compound 0.6325 µM) | relative viability (Selumetinib + OSI-027; first compound 0.02 µM) | relative viability (Selumetinib + OSI-027; first compound 0.06325 µM) | relative viability (Selumetinib + OSI-027; first compound 0.2 µM) | relative viability (Selumetinib + OSI-027; first compound 0.6325 µM) | relative viability (Selumetinib + Decitabine; first compound 0.02 µM) | relative viability (Selumetinib + Decitabine; first compound 0.06325 µM) | relative viability (Selumetinib + Decitabine; first compound 0.2 µM) | relative viability (Selumetinib + Decitabine; first compound 0.6325 µM) |
| --- | --- | --- | --- | --- | --- | --- | --- | --- | --- | --- | --- | --- | --- | --- | --- | --- | --- |
| NCI-H2347 | 0.486 | 0.425 | 0.437 | 0.438 | 0.444 | 0.386 | 0.467 | 0.403 | 0.355 | 0.412 | 0.294 | 0.255 | 0.177 | 0.571 | 0.585 | 0.49 | 0.34 |
| NCI-H522 | 1.13 | 1.01 | 0.879 | 1.19 | 0.759 | 0.676 | 0.74 | 0.542 | 0.581 | 0.693 | 0.64 | 0.685 | 0.682 | 0.837 | 0.585 | 0.692 | 0.7 |
| LC-2-ad | 0.283 | 0.27 | 0.256 | 0.262 | 0.259 | 0.8 | 0.503 | 0.757 | 0.672 | 0.828 | 0.662 | 0.631 | 0.726 | 0.73 | 0.817 | 0.781 | 0.776 |
| NCI-H661 | 0.933 | 0.922 | 0.861 | 0.897 | 0.901 | 0.808 | 0.722 | 0.696 | 0.727 | 0.804 | 0.582 | 0.571 | 0.57 | 0.572 | 0.492 | 0.546 | 0.51 |
| SK-MES-1 | 0.918 | 1.08 | 0.994 | 0.956 | 0.754 | 0.728 | 0.779 | 0.695 | 0.599 | 0.603 | 0.598 | 0.587 | 0.447 | 0.416 | 0.307 | 0.356 | 0.323 |
| NCI-H2170 | 0.25 | 0.278 | 0.259 | 0.259 | 0.253 | 0.62 | 0.594 | 0.649 | 0.568 | 0.712 | 0.714 | 0.664 | 0.684 | 0.469 | 0.488 | 0.452 | 0.439 |
| NCI-H2126 | 0.748 | 0.737 | 0.67 | 0.653 | 0.611 | 0.893 | 0.833 | 0.813 | 0.742 | 0.676 | 0.597 | 0.577 | 0.606 | 0.559 | 0.513 | 0.564 | 0.56 |
| EPLC-272H | 0.361 | 0.316 | 0.356 | 0.412 | 0.36 | 0.531 | 0.512 | 0.519 | 0.575 | 0.284 | 0.259 | 0.236 | 0.183 | 0.364 | 0.339 | 0.346 | 0.294 |
| PC-14 | 0.154 | 0.135 | 0.13 | 0.14 | 0.143 | 0.294 | 0.226 | 0.252 | 0.241 | 0.752 | 0.716 | 0.73 | 0.538 | 0.241 | 0.2 | 0.227 | 0.179 |
| NCI-H520 | 0.781 | 0.73 | – | 0.626 | 0.646 | 0.331 | 0.349 | 0.363 | 0.3 | 0.242 | 0.243 | 0.243 | 0.238 | 0.551 | 0.493 | 0.523 | 0.606 |
| LXF-289 | 0.986 | 0.948 | 0.782 | 0.873 | 0.79 | 1.04 | 1.01 | 0.963 | 1.04 | 0.796 | 0.73 | 0.648 | 0.519 | 0.356 | 0.418 | 0.36 | 0.437 |
| NCI-H441 | 0.274 | 0.271 | 0.243 | 0.253 | 0.244 | 0.613 | 0.609 | 0.517 | 0.444 | 0.593 | 0.494 | 0.598 | 0.517 | 0.244 | 0.224 | 0.207 | 0.268 |
| NCI-H596 | 0.473 | 0.495 | 0.461 | 0.488 | 0.486 | 0.596 | 0.663 | 0.572 | 0.599 | 0.775 | 0.673 | 0.693 | 0.571 | 0.927 | 0.936 | 0.922 | 0.83 |
| NCI-H838 | 0.246 | 0.261 | 0.264 | 0.234 | 0.24 | 0.727 | 0.67 | 0.652 | 0.662 | 0.31 | 0.327 | 0.315 | 0.252 | 0.446 | 0.421 | 0.45 | 0.448 |
| NCI-H1793 | 0.944 | 0.976 | 0.732 | 0.799 | 0.713 | 0.765 | 0.531 | 0.421 | 0.39 | 0.251 | 0.243 | 0.231 | 0.258 | 0.494 | 0.527 | 0.468 | 0.401 |
| NCI-H1792 | 0.416 | 0.998 | 0.7 | 0.815 | 0.618 | 0.256 | 0.353 | 0.439 | 0.235 | 0.761 | 0.727 | 0.67 | 0.611 | 0.635 | 0.486 | 0.52 | 0.425 |
| NCI-H1355 | 1.02 | 1.08 | 1.01 | 1.08 | 1.01 | 0.696 | 0.614 | 0.616 | 0.534 | 0.343 | 0.33 | 0.278 | 0.277 | 0.385 | 0.357 | 0.377 | 0.329 |
| HARA | 0.216 | 0.247 | – | 0.329 | 0.284 | 0.768 | 0.727 | 0.651 | 0.466 | 0.481 | 0.443 | 0.327 | 0.263 | 0.691 | 0.502 | 0.602 | 0.483 |
| 201T | 0.283 | 0.309 | 0.33 | 0.329 | 0.366 | 0.781 | 0.791 | 0.79 | 0.79 | 0.658 | 0.674 | 0.628 | 0.691 | 0.795 | 0.817 | 0.786 | 0.824 |
